Reference: the supplement of paper PMC10307832

Tests used:
Assay in all cases: relative viability (nuclei count vs DMSO), 5 days (fraction); higher = more cells survive
NCI-H3122 = system: NCI-H3122
Outline: (§1)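 Dosing by pin tool came one day after lung cancer cell lines were seeded in 1536-well plates, using either one drug or a fixed anchor-drug dose plus five library-drug doses (not always all listed) in √10 steps. After 5 days, nuclei were counted on 4× images. Relative viability is treated-well nuclei count divided by vehicle-well nuclei count, and values are medians of duplicate plates.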

H3255 = system: H3255
Outline: as §1

EPLC-272H = system: EPLC-272H
Outline: as §1

NCI-H441 = system: NCI-H441
Outline: as §1

NCI-H322M = system: NCI-H322M
Outline: as §1

NCI-H2170 = system: NCI-H2170
Outline: as §1

201T = system: 201T
Outline: as §1

UMC-11 = system: UMC-11
Outline: as §1

NCI-H647 = system: NCI-H647
Outline: as §1

NCI-H1650 = system: NCI-H1650
Outline: as §1

NCI-H1734 = system: NCI-H1734
Outline: as §1

PC-14 = system: PC-14
Outline: as §1

NCI-H2023 = system: NCI-H2023
Outline: as §1

NCI-H1793 = system: NCI-H1793
Outline: as §1

NCI-H1563 = system: NCI-H1563
Outline: as §1

COR-L23 = system: COR-L23
Outline: as §1

HCC-15 = system: HCC-15
Outline: as §1

SW 900 = system: SW 900
Outline: as §1

NCI-H520 = system: NCI-H520
Outline: as §1

LOU-NH91 = system: LOU-NH91
Outline: as §1

NCI-H2405 = system: NCI-H2405
Outline: as §1

NCI-H2347 = system: NCI-H2347
Outline: as §1

COc1cc2nccc(Oc3ccc(NC(=O)Nc4cc(C)on4)c(Cl)c3)c2cc1OC [Tivozanib] + CCNC(=O)c1noc(-c2cc(C(C)C)c(O)cc2O)c1-c1ccc(CN2CCOCC2)cc1 [Luminespib] (partner 0.01 µM)
relative viability (NCI-H3122; first compound 0.005 µM): 0.0849 | relative viability (NCI-H3122; first compound 0.01581 µM): 0.104 | relative viability (NCI-H3122; first compound 0.05 µM): 0.0902 | relative viability (NCI-H3122; first compound 0.1581 µM): 0.0689 | relative viability (NCI-H3122; first compound 0.5 µM): 0.0976 | relative viability (H3255; first compound 0.005 µM): 0.69 | relative viability (H3255; first compound 0.01581 µM): 0.851 | relative viability (H3255; first compound 0.05 µM): 0.821 | relative viability (H3255; first compound 0.1581 µM): 0.704 | relative viability (H3255; first compound 0.5 µM): 0.681 | relative viability (EPLC-272H; first compound 0.005 µM): 0.24 | relative viability (EPLC-272H; first compound 0.01581 µM): 0.383 | relative viability (EPLC-272H; first compound 0.05 µM): 0.34 | relative viability (EPLC-272H; first compound 0.1581 µM): 0.242 | relative viability (EPLC-272H; first compound 0.5 µM): 0.443 | relative viability (NCI-H441; first compound 0.005 µM): 0.367 | relative viability (NCI-H441; first compound 0.01581 µM): 0.446 | relative viability (NCI-H441; first compound 0.05 µM): 0.308 | relative viability (NCI-H441; first compound 0.1581 µM): 0.322 | relative viability (NCI-H441; first compound 0.5 µM): 0.399 | relative viability (NCI-H322M; first compound 0.005 µM): 0.797 | relative viability (NCI-H322M; first compound 0.01581 µM): 0.882 | relative viability (NCI-H322M; first compound 0.05 µM): 0.958 | relative viability (NCI-H322M; first compound 0.1581 µM): 0.694 | relative viability (NCI-H322M; first compound 0.5 µM): 0.965 | relative viability (NCI-H2170; first compound 0.005 µM): 0.711 | relative viability (NCI-H2170; first compound 0.01581 µM): 0.606 | relative viability (NCI-H2170; first compound 0.05 µM): 0.661 | relative viability (NCI-H2170; first compound 0.1581 µM): 0.304 | relative viability (NCI-H2170; first compound 0.5 µM): 0.907 | relative viability (201T; first compound 0.005 µM): 1.06 | relative viability (201T; first compound 0.01581 µM): 1.06 | relative viability (201T; first compound 0.05 µM): 1.03 | relative viability (201T; first compound 0.1581 µM): 1.06 | relative viability (201T; first compound 0.5 µM): 1.06 | relative viability (UMC-11; first compound 0.005 µM): 1.03 | relative viability (UMC-11; first compound 0.01581 µM): 0.975 | relative viability (UMC-11; first compound 0.05 µM): 1.03 | relative viability (UMC-11; first compound 0.5 µM): 1.06 | relative viability (NCI-H647; first compound 0.005 µM): 0.156 | relative viability (NCI-H647; first compound 0.01581 µM): 0.527 | relative viability (NCI-H647; first compound 0.05 µM): 0.401 | relative viability (NCI-H647; first compound 0.1581 µM): 0.257 | relative viability (NCI-H647; first compound 0.5 µM): 0.148 | relative viability (NCI-H1650; first compound 0.005 µM): 0.172 | relative viability (NCI-H1650; first compound 0.01581 µM): 0.209 | relative viability (NCI-H1650; first compound 0.05 µM): 0.213 | relative viability (NCI-H1650; first compound 0.1581 µM): 0.178 | relative viability (NCI-H1650; first compound 0.5 µM): 0.203 | relative viability (NCI-H1734; first compound 0.005 µM): 0.2 | relative viability (NCI-H1734; first compound 0.01581 µM): 0.231 | relative viability (NCI-H1734; first compound 0.05 µM): 0.325 | relative viability (NCI-H1734; first compound 0.1581 µM): 0.178 | relative viability (NCI-H1734; first compound 0.5 µM): 0.18 | relative viability (PC-14; first compound 0.005 µM): 0.115 | relative viability (PC-14; first compound 0.01581 µM): 0.139 | relative viability (PC-14; first compound 0.05 µM): 0.187 | relative viability (PC-14; first compound 0.1581 µM): 0.15 | relative viability (PC-14; first compound 0.5 µM): 0.139 | relative viability (NCI-H2023; first compound 0.005 µM): 0.664 | relative viability (NCI-H2023; first compound 0.01581 µM): 0.698 | relative viability (NCI-H2023; first compound 0.05 µM): 0.681 | relative viability (NCI-H2023; first compound 0.1581 µM): 0.748 | relative viability (NCI-H2023; first compound 0.5 µM): 0.763 | relative viability (NCI-H1793; first compound 0.005 µM): 0.154 | relative viability (NCI-H1793; first compound 0.01581 µM): 0.422 | relative viability (NCI-H1793; first compound 0.05 µM): 0.2 | relative viability (NCI-H1793; first compound 0.1581 µM): 0.141 | relative viability (NCI-H1793; first compound 0.5 µM): 0.237 | relative viability (NCI-H1563; first compound 0.005 µM): 0.45 | relative viability (NCI-H1563; first compound 0.01581 µM): 0.539 | relative viability (NCI-H1563; first compound 0.05 µM): 0.541 | relative viability (NCI-H1563; first compound 0.1581 µM): 0.52 | relative viability (NCI-H1563; first compound 0.5 µM): 0.472 | relative viability (COR-L23; first compound 0.005 µM): 0.62 | relative viability (COR-L23; first compound 0.01581 µM): 0.607 | relative viability (COR-L23; first compound 0.05 µM): 0.748 | relative viability (COR-L23; first compound 0.1581 µM): 0.597 | relative viability (COR-L23; first compound 0.5 µM): 0.532 | relative viability (HCC-15; first compound 0.005 µM): 0.249 | relative viability (HCC-15; first compound 0.01581 µM): 0.382 | relative viability (HCC-15; first compound 0.05 µM): 0.327 | relative viability (HCC-15; first compound 0.1581 µM): 0.398 | relative viability (HCC-15; first compound 0.5 µM): 0.378 | relative viability (SW 900; first compound 0.005 µM): 0.174 | relative viability (SW 900; first compound 0.01581 µM): 0.186 | relative viability (SW 900; first compound 0.05 µM): 0.184 | relative viability (SW 900; first compound 0.1581 µM): 0.167 | relative viability (SW 900; first compound 0.5 µM): 0.172 | relative viability (NCI-H520; first compound 0.005 µM): 0.287 | relative viability (NCI-H520; first compound 0.01581 µM): 0.219 | relative viability (NCI-H520; first compound 0.05 µM): 0.222 | relative viability (NCI-H520; first compound 0.1581 µM): 0.328 | relative viability (NCI-H520; first compound 0.5 µM): 0.245 | relative viability (LOU-NH91; first compound 0.005 µM): 0.334 | relative viability (LOU-NH91; first compound 0.01581 µM): 0.333 | relative viability (LOU-NH91; first compound 0.05 µM): 0.374 | relative viability (LOU-NH91; first compound 0.1581 µM): 0.33 | relative viability (LOU-NH91; first compound 0.5 µM): 0.35 | relative viability (NCI-H2405; first compound 0.005 µM): 0.644 | relative viability (NCI-H2405; first compound 0.01581 µM): 0.953 | relative viability (NCI-H2405; first compound 0.05 µM): 0.723 | relative viability (NCI-H2405; first compound 0.1581 µM): 0.684 | relative viability (NCI-H2405; first compound 0.5 µM): 0.54 | relative viability (NCI-H2347; first compound 0.01581 µM): 0.488 | relative viability (NCI-H2347; first compound 0.05 µM): 0.886 | relative viability (NCI-H2347; first compound 0.5 µM): 0.249
